Experimental data as given in PubChem BioAssay (NCI).
Values joined by “and” are separate entries in the source; they are usually repeats but may differ in a detail not shown here. Equal entries are not always repeated.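 Exposure lasted 48 hours, with cells grown in 96-well plates and compounds tested at five concentrations. GI50 is the concentration that inhibits growth by half. TGI marks complete inhibition of growth.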

Columns and labels:
Test in all cases: NCI tumour cell line growth inhibition, 48 h
P388/ADR leukemia = test system: P388/ADR leukemia
DLD-1 colon = test system: DLD-1 colon
DMS 114 small cell lung = test system: DMS 114 small cell lung
P388 leukemia = test system: P388 leukemia
PC-3 prostate = test system: PC-3 prostate
SN12K1 renal = test system: SN12K1 renal
DMS 273 small cell lung = test system: DMS 273 small cell lung
MDA-N = test system: MDA-N
KM20L2 colon = test system: KM20L2 colon
LXFL 529 NSCLC = test system: LXFL 529 NSCLC
RXF-631 renal = test system: RXF-631 renal
SNB-78 CNS = test system: SNB-78 CNS

Structure (SMILES) | TGI (P388/ADR leukemia) | GI50 (DLD-1 colon) | TGI (DLD-1 colon) | GI50 (DMS 114 small cell lung) | TGI (DMS 114 small cell lung) | TGI (P388 leukemia) | GI50 (PC-3 prostate) | TGI (PC-3 prostate) | TGI (SN12K1 renal) | GI50 (DMS 273 small cell lung) | TGI (DMS 273 small cell lung) | GI50 (MDA-N) | TGI (MDA-N) | GI50 (KM20L2 colon) | TGI (KM20L2 colon) | GI50 (LXFL 529 NSCLC) | TGI (LXFL 529 NSCLC) | GI50 (RXF-631 renal) | TGI (RXF-631 renal) | TGI (SNB-78 CNS)
O=C(O)CCCc1ccc(N(CCCl)CCCl)cc1 | 154 µM | 24.3 µM | 54.8 µM and 280 µM | 7.84 µM | 32.4 µM and 179 µM | 135 µM | 210 µM | 416 µM and 609 µM | 238 µM | 3.84 µM | 28 µM and 161 µM | 194 µM | 271 µM and 325 µM | 27.8 µM | 60.9 µM and 379 µM | 19.5 µM | 35.4 µM and 199 µM | 19.7 µM | 47.7 µM and 277 µM | –
COc1cc2c(c(O)c1C)C(=O)C(Cl)=CC2=O | – | – | 48.5 µM | – | 32.8 µM | – | – | 28.7 µM | – | – | 34.5 µM | – | 12.1 µM | – | 49.1 µM | – | 19.4 µM | – | 17.6 µM | 17.4 µM
O=C(O/N=C1/CCC/C1=C\c1ccccc1)c1ccc([N+](=O)[O-])cc1 | – | – | > 100 µM | – | > 100 µM | – | – | – | – | – | > 100 µM | – | – | – | > 100 µM | – | > 100 µM | – | > 100 µM | > 100 µM
CN1CCCNCCN(CCc2ccccn2)CCCN(C)CC1 | – | – | > 100 µM | – | > 58.2 µM | – | – | – | – | – | 81.5 µM | – | – | – | > 100 µM | – | > 100 µM | – | > 100 µM | > 100 µM
